From patent US20250215012A1, “IKZF2 DEGRADERS AND USES THEREOF” (REGENTS OF THE UNIVERSITY OF MICHIGAN, priority 2022, published 2025)
Like-named read-outs stand apart in the source and are kept apart here.

Target: IKZF2 (Homo sapiens (Human), UniProt Q96SW2+Q9UKS7)
Assay: IKZF2 HiBiT Assay (Jurkat-IKZF2-HiBiT cell line)
Type: cell-based
Settings: for DC50: read-out: HiBit assay degradation analysis DC50; for Dmax: read-out: HiBit assay degradation analysis Dmax
Summary of the method: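 IKZF2 degradation was assessed as HiBiT luminescence in Jurkat-IKZF2-HiBiT cells, using lytic detection after 24 h of compound treatment at 37 °C, 5% CO2.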

[1] = Jurkat-IKZF2-HiBiT cells, 24 hours

IKZF2, sequence (Q9UKS7 whole entry): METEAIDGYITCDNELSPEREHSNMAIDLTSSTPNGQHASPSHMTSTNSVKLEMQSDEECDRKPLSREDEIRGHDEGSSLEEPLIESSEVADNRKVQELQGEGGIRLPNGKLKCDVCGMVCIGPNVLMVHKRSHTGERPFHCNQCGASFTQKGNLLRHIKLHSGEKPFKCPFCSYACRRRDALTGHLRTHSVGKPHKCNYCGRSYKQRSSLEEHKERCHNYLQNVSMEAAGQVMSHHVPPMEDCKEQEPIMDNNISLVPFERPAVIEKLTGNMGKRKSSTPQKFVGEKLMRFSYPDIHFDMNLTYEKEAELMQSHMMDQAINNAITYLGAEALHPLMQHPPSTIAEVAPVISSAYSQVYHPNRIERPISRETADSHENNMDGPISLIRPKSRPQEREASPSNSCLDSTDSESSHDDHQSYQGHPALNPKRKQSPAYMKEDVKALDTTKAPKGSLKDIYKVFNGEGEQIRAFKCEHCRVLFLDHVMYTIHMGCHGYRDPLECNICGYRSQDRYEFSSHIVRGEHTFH
IKZF2, sequence (Q96SW2 whole entry): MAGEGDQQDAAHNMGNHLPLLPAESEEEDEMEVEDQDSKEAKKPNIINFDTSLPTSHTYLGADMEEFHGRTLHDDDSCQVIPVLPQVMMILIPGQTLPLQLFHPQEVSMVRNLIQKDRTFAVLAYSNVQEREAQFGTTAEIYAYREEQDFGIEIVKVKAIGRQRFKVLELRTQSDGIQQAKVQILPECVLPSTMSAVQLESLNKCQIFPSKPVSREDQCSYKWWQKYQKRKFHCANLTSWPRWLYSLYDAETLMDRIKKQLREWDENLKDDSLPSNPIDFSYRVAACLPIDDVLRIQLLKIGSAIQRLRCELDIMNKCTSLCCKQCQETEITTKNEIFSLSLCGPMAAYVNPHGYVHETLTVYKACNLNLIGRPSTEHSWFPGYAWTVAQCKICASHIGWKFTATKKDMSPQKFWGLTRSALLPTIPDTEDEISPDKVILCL
IKZF2, sequence (Q16531 whole entry partner): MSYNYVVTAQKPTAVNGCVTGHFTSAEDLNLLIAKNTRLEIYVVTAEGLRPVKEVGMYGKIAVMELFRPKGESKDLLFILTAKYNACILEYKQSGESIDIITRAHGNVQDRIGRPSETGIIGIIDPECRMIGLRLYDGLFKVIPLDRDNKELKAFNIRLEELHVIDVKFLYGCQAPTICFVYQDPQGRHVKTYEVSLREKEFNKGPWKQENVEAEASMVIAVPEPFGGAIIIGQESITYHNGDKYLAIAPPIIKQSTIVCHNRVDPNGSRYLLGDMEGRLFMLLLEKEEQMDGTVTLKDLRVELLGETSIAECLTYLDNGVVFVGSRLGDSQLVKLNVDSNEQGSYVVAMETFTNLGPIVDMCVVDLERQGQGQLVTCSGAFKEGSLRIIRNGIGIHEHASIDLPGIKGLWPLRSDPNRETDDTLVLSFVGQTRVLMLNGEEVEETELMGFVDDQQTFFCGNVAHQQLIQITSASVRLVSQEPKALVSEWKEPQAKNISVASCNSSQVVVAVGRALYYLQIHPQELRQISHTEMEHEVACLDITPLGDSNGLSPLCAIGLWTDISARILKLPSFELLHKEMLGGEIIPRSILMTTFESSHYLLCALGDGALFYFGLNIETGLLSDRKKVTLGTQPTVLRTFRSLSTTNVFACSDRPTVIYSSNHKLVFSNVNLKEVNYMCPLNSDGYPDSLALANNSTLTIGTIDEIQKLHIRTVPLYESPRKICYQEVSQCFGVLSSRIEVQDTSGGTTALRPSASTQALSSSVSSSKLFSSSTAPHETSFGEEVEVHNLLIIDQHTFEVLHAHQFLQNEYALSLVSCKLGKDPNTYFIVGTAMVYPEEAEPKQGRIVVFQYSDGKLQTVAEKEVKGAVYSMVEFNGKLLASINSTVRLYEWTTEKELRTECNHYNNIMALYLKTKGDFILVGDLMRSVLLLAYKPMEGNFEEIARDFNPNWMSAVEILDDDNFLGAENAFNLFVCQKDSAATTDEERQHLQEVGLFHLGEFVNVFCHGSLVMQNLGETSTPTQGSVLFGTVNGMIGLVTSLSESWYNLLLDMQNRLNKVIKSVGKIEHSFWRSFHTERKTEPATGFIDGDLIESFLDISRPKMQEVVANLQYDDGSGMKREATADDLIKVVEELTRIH

O=C1CCC(N2Cc3c(ccc4c3OCC43CCN(Cc4cccc5c4CCC5)CC3)C2=O)C(=O)N1 (centres unmarked) [Compound A207, 3-(1′-((2,3-dihydro-1H-inden-4-yl)methyl)-6-oxo-6,8-dihydro-2H,7H-spiro[furo[2,3-e]isoindole-3,4′-piperidin]-7-yl)piperidine-2,6-dione]
DC50 [1]: > 500 nM | Dmax [1]: < 40%

O=C1CCC(N2Cc3c(ccc4c3OCC43CCN(Cc4csc(-c5ccccc5)n4)CC3)C2=O)C(=O)N1 (centres unmarked) [Compound A82, 3-(6-oxo-1′-((2-phenylthiazol-4-yl)methyl)-6,8-dihydro-2H,7H-spiro[furo[2,3-e]isoindole-3,4′-piperidin]-7-yl)piperidine-2,6-dione]
DC50 [1]: > 500 nM | Dmax [1]: < 40%

O=C1CCC(N2Cc3c(ccc4c3OCC43CCN(Cc4ccn(-c5cccc(F)c5)n4)CC3)C2=O)C(=O)N1 (centres unmarked) [Compound A316, 3-(1′-((1-(3-fluorophenyl)-1H-pyrazol-3-yl)methyl)-6-oxo-6,8-dihydro-2H,7H-spiro[furo[2,3-e]isoindole-3,4′-piperidin]-7-yl)piperidine-2,6-dione]
DC50 [1]: > 500 nM | Dmax [1]: 40 to 60%

Cc1ccc(C(=O)Nc2cccc(CN3CCC4(CC3)COc3c4ccc4c3CN(C3CCC(=O)NC3=O)C4=O)c2)cc1 (centres unmarked) [Compound A179, N-(3-((7-(2,6-dioxopiperidin-3-yl)-6-oxo-7,8-dihydro-2H,6H-spiro[furo[2,3-e]isoindole-3,4′-piperidin]-1′-yl)methyl)phenyl)-4-methylbenzamide]
DC50 [1]: < 50 nM | Dmax: > 80%

[2H]C([2H])([2H])n1ncc2ccc(CN3CCC4(CC3)COc3c4ccc4c3CN([C@H]3CCC(=O)NC3=O)C4=O)cc21 [Compound A300, (S)-3-(1′-((1-(methyl-d3)-1H-indazol-6-yl)methyl)-6-oxo-6,8-dihydro-2H,7H-spiro[furo[2,3-e]isoindole-3,4′-piperidin]-7-yl)piperidine-2,6-dione]
DC50 [1]: < 50 nM | Dmax [1]: 60 to 80%

O=C1CCC(N2Cc3c(ccc4c3OCC43CCN(Cc4cccc(OCc5ccccn5)c4)CC3)C2=O)C(=O)N1 (centres unmarked) [Compound A135, 3-(6-oxo-1′-(3-(pyridin-2-ylmethoxy)benzyl)-6,8-dihydro-2H,7H-spiro[furo[2,3-e]isoindole-3,4′-piperidin]-7-yl)piperidine-2,6-dione]
DC50 [1]: < 50 nM | Dmax [1]: 60 to 80%

O=C1CCC(N2Cc3c(ccc4c3OCC43CCN(Cc4cc(F)cc5cc[nH]c45)CC3)C2=O)C(=O)N1 (centres unmarked) [Compound A110, 3-(1′-((5-fluoro-1H-indol-7-yl)methyl)-6-oxo-6,8-dihydro-2H,7H-spiro[furo[2,3-e]isoindole-3,4′-piperidin]-7-yl)piperidine-2,6-dione]
DC50 [1]: < 50 nM | Dmax [1]: > 80%

COc1cc(CN2CCC3(CC2)COc2c3ccc3c2CN([C@H]2CCC(=O)NC2=O)C3=O)cc(-c2cnn(C3COC3)c2)c1 [Compound A277]
DC50 [1]: < 50 nM | Dmax [1]: > 80%

O=C1CCC(N2Cc3c(ccc4c3OCC43CCN(Cc4cncc5ccccc45)CC3)C2=O)C(=O)N1 (centres unmarked) [Compound A43, 3-(1′-(isoquinolin-4-ylmethyl)-6-oxo-6,8-dihydro-2H,7H-spiro[furo[2,3-e]isoindole-3,4′-piperidin]-7-yl)piperidine-2,6-dione]
DC50 [1]: > 500 nM | Dmax [1]: 40 to 60%

O=C1CCC(N2Cc3c(ccc4c3OCCC43CCN(Cc4ccc(C(F)F)cc4)CC3)C2=O)C(=O)N1 (centres unmarked) [Compound A9, 3-(1-(4-(difluoromethyl)benzyl)-7′-oxo-2′,3′,7′,9′-tetrahydro-8′H-spiro[piperidine-4,4′-pyrano[2,3-e]isoindol]-8′-yl)piperidine-2,6-dione]
DC50 [1]: > 500 nM | Dmax [1]: < 40%

O=C1CCC(N2Cc3c(ccc4c3OCC43CCN(Cc4cccc(-n5ccnc5)c4)CC3)C2=O)C(=O)N1 (centres unmarked) [Compound A108, 3-(1′-(3-(1H-imidazol-1-yl)benzyl)-6-oxo-6,8-dihydro-2H,7H-spiro[furo[2,3-e]isoindole-3,4′-piperidin]-7-yl)piperidine-2,6-dione]
DC50 [1]: > 500 nM | Dmax [1]: 40 to 60%

O=C1CC[C@H](N2Cc3c(ccc4c3OCC43CCN(Cc4ccc5c(c4)NC(=O)C5)CC3)C2=O)C(=O)N1 [Compound A173, (S)-3-(6-oxo-1′-((2-oxoindolin-6-yl)methyl)-6,8-dihydro-2H,7H-spiro[furo[2,3-e]isoindole-3,4′-piperidin]-7-yl)piperidine-2,6-dione]
DC50 [1]: 50 to 200 nM | Dmax [1]: 60 to 80%

CC(C)(c1ccccc1)n1cc(CN2CCC3(CC2)COc2c3ccc3c2CN([C@H]2CCC(=O)NC2=O)C3=O)cn1 [Compound A346, (S)-3-(6-oxo-1′-((1-(2-phenylpropan-2-yl)-1H-pyrazol-4-yl)methyl)-6,8-dihydro-2H,7H-spiro[furo[2,3-e]isoindole-3,4′-piperidin]-7-yl)piperidine-2,6-dione]
DC50 [1]: < 50 nM | Dmax [1]: 60 to 80%
